Assay results as given in patent US6399833B1, “Process for producing aryl vinyl sulfone solution and use thereof” (Sumitomo Chemical Company, Limited, priority 1998, dated 2002).

Legend:
[1] = Stability of phenyl vinyl sulfone solutions in various solvents, thermostatic bath at 40° C., analysed by gas chromatography; assay type: physicochemical; details: for Retention in DMF solution: N,N-dimethylformamide solution (30%); for Retention in ethanol solution: ethanol solution (10%); for Retention in MIK solution: methyl isobutyl ketone solution (30%); for Retention in MTBE solution: methyl t-butyl ether solution (10%); for Retention in toluene solution: toluene solution (30%)
Protocol: About 35 ml of a phenyl vinyl sulfone solution and a chip of stainless steel (20 mm×25 mm×2 mm) (assuming the storage in a stainless steel vessel) were put in a glass sample tube of 50 ml in volume, which was purged with nitrogen gas and then sealed with a tight stopper, followed by stability tests in a thermostatic bath at 40° C. The results of retention when a toluene solution (concentration, 30%), a methyl isobutyl ketone solution (concentration, 30%), and a methyl t-butyl ether solution (concentration, 10%) were used as the phenyl vinyl sulfone solutions are shown in Table 2.
The concentration of phenyl vinyl sulfone in each solution was analyzed by gas chromatography. In the table, MIK refers to methyl isobutyl ketone; and MTBE, methyl t-butyl ether.
Stability tests were carried out in the same manner as described in Reference Example 3, except that an ethanol solution (concentration, 10%) and an N,N-dimethylformamide solution (concentration, 30%) were used as the phenyl vinyl sulfone solutions. In the table, DMF refers to N,N-dimethylformamide.

[2] = Stability of phenyl vinyl sulfone/acetonitrile solution, thermostatic bath at 40° C., analysed by gas chromatography; assay type: physicochemical; details: 30% acetonitrile solution, stainless steel chip, nitrogen
Protocol: About 70 ml of a phenyl vinyl sulfone/acetonitrile solution (phenyl vinyl sulfone concentration, 30%) and a chip of stainless steel (20 mm×25 mm×2 mm) (assuming the storage in a stainless steel vessel) were put in a glass sample tube of 100 ml in volume, which was purged with nitrogen gas and then sealed with a tight stopper, followed by stability tests in a thermostatic bath at 40° C. The concentration of phenyl vinyl sulfone in the phenyl vinyl sulfone/acetonitrile solution was analyzed by gas chromatography.

[3] = Aldrich Material Safety Data; cited from earlier work

C=CS(=O)(=O)c1ccccc1 [phenyl vinyl sulfone]
Appearance of solution on storage ([1]; DMF solution (30%), with the lapse of storage days): yellow coloring was observed | Retention in DMF solution ([1]; 0 day): 100% | Retention in DMF solution ([1]; 15 days): 99.0% | Retention in ethanol solution ([1]; 0 day): 100% | Retention in ethanol solution ([1]; 15 days): 83.8% | Retention in MIK solution ([1]; 0 day): 100% | Retention in MIK solution ([1]; 15 days): 99.5% | Retention in MTBE solution ([1]; 0 day): 100% | Retention in MTBE solution ([1]; 15 days): 100% | Retention in toluene solution ([1]; 0 day): 100% | Retention in toluene solution ([1]; 15 days): 100% | Retention ([2]; 0 day): 100% | Retention ([2]; 30 days): 100% | Retention ([2]; 60 days): 99.9% | Retention ([2]; 90 days): 99.4% | Irritation [3]: exhibit irritation
